One assay has as its target H1 (Homo sapiens, UniProt P35367). Kind of assay: PDSP radioligand binding, histamine receptor H1. The source says: (§1) [17] and http://pdsp.med.unc.edu/UNC-CH%20Protocol%20Book.pdf.
The target of another assay is A3B4 (Rattus norvegicus, UniProt P04757+P12392). Kind of assay: PDSP radioligand binding, nicotinic receptor α3 ß4.
Description: as §1

The target in the next assay is 5-HT2B (Homo sapiens, UniProt P41595). The assay can be described thus: PDSP radioligand binding, serotonin receptor 5-HT2B.
Description: as §1

For a further assay, the target named is 5-HT6 (Homo sapiens, UniProt P50406). Kind of assay: PDSP radioligand binding, serotonin receptor 5-HT6.
Description: as §1

In another assay the target is T1, M1 (Homo sapiens, UniProt P11229).
T1 sequence (P11229 1-460): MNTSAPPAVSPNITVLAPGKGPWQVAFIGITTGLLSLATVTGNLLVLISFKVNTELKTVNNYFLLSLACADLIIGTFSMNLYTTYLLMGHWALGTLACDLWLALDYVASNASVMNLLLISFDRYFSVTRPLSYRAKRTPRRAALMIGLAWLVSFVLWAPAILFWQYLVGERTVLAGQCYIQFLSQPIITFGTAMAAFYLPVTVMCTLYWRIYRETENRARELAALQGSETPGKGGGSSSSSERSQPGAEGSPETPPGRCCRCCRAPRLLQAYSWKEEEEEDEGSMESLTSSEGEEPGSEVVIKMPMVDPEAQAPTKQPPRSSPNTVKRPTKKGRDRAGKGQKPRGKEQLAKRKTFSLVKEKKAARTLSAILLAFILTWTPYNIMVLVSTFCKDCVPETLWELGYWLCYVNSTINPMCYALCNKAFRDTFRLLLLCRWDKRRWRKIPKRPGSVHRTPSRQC
Kind of assay: PDSP radioligand binding, muscarinic receptor M1.
Description: as §1

The next assay deals with T2, M5 (Homo sapiens, UniProt P08912).
T2 sequence (P08912 1-532): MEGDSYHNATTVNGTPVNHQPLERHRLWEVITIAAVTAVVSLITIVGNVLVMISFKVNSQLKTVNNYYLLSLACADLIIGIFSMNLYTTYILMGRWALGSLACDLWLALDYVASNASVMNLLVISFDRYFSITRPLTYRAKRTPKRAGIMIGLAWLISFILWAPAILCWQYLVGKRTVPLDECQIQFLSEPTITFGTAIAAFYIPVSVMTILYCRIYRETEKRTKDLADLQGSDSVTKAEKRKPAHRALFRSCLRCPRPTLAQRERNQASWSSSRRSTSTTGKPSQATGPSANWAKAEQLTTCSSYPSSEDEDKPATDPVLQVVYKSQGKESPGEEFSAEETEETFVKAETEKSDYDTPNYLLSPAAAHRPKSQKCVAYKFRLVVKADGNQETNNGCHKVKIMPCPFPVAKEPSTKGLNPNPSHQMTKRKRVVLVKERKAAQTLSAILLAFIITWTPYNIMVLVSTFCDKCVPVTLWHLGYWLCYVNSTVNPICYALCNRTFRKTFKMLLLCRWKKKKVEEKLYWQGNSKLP
The assay can be described thus: PDSP radioligand binding, muscarinic receptor M5.
Description: as §1

The target in a further assay is CB2 (Homo sapiens, UniProt P34972). Kind of assay: PDSP radioligand binding, cannabinoid CB-2.
Description: as §1

The next assay deals with A3B2 (Rattus norvegicus, UniProt P04757+P12390). The assay can be described thus: PDSP radioligand binding, nicotinic receptor α3 ß2.
Description: as §1

For the next assay, the target named is Beta3 (Homo sapiens, UniProt P13945). The assay can be described thus: PDSP radioligand binding, adrenoceptor ß3.
Description: as §1

In another assay the target is H3 (Homo sapiens, UniProt Q9Y5N1). Kind of assay: PDSP radioligand binding, histamine receptor H3.
Description: as §1

The target in the next assay is A2B2 (Rattus norvegicus, UniProt P12389+P12390). Kind of assay: PDSP radioligand binding, nicotinic receptor α2 ß2.
Description: as §1

In a further assay the target is A4B2 (Rattus norvegicus, UniProt P09483+P12390). Kind of assay: PDSP nicotinic receptor A4B2**. Type of assay: binding.
Description: as §1

A further assay concerns the target 5-ht1e (Homo sapiens, UniProt P28566). The assay can be described thus: PDSP radioligand binding, serotonin receptor 5-HT1E.
Description: as §1

The next assay has as its target T3, Alpha1D (Homo sapiens, UniProt P25100).
T3 sequence (P25100 1-572): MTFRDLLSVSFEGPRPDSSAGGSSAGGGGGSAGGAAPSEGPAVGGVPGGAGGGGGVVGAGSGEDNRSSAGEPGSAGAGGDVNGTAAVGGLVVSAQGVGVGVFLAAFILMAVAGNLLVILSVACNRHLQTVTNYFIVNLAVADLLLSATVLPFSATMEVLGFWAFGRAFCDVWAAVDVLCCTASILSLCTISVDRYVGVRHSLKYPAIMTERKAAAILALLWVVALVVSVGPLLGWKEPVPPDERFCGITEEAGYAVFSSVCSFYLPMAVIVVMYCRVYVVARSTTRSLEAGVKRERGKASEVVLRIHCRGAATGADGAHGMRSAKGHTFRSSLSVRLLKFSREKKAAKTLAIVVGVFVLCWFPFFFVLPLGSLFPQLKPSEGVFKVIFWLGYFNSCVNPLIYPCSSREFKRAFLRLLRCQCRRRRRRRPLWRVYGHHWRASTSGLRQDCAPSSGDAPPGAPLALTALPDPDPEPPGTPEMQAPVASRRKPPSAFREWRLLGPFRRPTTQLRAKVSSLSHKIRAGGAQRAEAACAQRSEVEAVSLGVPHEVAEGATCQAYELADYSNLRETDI
Kind of assay: PDSP radioligand binding, adrenoceptor α1D.
Description: as §1

The next assay has as its target 5-HT1B (Homo sapiens, UniProt P28222). Kind of assay: PDSP radioligand binding, serotonin receptor 5-HT1B.
Description: as §1

Another assay addresses 5-HT1D (Homo sapiens, UniProt P28221). Kind of assay: PDSP radioligand binding, serotonin receptor 5-HT1D.
Description: as §1

Another assay deals with H2 (Homo sapiens, UniProt P25021). Kind of assay: PDSP radioligand binding, histamine receptor H2.
Description: as §1

For a further assay, the target named is KOR (Homo sapiens, UniProt P41145). Kind of assay: PDSP radioligand binding, opioid receptor KOR.
Description: as §1

The results in this text go back to publication PMC3602154 (PLoS ONE, 2013).

H1, sequence (P35367 whole entry): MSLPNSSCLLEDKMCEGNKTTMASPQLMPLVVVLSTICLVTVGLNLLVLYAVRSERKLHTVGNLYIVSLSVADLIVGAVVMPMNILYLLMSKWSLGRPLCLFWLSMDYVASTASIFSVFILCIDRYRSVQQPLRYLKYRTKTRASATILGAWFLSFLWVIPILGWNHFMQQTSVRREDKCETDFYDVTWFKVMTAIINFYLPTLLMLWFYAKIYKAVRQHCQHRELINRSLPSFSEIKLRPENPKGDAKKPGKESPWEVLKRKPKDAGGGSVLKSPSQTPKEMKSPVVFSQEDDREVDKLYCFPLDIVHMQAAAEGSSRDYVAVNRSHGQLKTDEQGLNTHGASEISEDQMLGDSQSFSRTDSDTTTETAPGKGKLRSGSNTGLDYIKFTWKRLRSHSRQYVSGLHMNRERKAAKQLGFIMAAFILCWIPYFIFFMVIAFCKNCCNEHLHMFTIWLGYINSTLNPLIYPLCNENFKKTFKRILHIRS
H2, sequence (P25021 whole entry): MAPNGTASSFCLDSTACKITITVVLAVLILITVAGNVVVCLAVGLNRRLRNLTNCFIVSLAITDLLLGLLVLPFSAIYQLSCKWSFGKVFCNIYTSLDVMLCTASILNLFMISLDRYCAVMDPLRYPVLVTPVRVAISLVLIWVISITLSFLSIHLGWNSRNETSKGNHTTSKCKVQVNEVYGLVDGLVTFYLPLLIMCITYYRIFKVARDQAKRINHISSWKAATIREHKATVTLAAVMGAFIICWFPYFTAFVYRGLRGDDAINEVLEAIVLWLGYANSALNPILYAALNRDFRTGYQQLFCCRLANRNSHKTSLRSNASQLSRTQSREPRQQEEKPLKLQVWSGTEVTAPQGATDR
5-HT1B, sequence (P28222 whole entry, species assumed): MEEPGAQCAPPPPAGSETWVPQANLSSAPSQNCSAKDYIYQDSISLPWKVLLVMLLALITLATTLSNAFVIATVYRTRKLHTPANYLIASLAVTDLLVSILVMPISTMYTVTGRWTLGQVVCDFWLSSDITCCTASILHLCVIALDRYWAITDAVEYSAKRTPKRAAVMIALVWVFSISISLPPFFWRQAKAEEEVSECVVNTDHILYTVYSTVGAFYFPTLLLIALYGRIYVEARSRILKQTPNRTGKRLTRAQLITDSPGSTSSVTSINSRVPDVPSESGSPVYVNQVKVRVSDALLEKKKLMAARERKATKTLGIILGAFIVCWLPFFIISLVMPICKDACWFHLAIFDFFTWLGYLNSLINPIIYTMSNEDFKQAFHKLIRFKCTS
A4B2, sequence (P09483 31-630): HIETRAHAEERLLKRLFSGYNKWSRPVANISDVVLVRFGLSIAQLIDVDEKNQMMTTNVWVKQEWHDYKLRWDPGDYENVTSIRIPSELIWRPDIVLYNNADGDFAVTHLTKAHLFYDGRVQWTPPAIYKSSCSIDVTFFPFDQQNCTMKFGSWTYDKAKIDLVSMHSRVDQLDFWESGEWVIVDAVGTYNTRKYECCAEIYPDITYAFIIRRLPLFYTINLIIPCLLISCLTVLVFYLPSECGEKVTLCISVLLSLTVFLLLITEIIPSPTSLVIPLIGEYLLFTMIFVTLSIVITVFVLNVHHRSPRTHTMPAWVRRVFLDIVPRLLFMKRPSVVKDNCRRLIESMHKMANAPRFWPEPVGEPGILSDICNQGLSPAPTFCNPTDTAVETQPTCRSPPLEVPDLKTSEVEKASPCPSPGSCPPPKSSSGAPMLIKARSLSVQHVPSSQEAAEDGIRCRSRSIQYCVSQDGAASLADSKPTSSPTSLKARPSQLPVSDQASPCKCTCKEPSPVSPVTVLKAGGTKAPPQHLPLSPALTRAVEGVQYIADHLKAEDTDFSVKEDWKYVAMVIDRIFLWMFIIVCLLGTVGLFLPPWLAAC
A4B2, sequence (P12390 25-500): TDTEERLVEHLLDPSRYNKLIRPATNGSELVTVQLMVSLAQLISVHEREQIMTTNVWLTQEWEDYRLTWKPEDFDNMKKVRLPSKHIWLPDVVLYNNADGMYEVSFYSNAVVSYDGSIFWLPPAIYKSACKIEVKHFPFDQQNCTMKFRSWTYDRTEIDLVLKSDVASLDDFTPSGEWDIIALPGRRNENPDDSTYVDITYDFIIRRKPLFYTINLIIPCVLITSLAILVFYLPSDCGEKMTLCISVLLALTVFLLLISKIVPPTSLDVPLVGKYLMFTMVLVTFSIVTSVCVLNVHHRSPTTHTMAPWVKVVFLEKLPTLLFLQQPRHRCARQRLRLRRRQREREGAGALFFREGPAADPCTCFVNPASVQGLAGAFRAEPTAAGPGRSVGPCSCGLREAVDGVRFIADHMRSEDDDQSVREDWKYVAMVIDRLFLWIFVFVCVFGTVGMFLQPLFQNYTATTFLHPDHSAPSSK
5-HT1D, sequence (P28221 whole entry, species assumed): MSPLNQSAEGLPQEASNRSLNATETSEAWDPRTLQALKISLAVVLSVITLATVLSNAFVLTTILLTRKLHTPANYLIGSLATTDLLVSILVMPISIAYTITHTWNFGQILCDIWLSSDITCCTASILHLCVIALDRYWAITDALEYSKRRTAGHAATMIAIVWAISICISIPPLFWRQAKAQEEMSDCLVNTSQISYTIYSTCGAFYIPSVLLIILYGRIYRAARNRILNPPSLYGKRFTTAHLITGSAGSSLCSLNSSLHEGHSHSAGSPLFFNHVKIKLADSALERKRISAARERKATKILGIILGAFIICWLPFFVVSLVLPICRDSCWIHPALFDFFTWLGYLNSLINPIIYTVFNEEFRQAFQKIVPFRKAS
Beta3, sequence (P13945 whole entry): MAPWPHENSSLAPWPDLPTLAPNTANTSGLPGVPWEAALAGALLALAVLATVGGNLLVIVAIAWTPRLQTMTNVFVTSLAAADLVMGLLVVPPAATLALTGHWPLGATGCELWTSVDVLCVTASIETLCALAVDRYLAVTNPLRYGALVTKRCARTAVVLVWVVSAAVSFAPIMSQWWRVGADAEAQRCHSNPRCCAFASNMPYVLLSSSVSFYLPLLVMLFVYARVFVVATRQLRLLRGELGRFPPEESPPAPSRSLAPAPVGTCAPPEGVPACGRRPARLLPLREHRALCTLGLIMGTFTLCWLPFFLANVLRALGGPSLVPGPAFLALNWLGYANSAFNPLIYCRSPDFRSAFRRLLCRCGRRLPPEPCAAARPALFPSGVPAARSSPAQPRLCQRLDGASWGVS
H3, sequence (Q9Y5N1 whole entry): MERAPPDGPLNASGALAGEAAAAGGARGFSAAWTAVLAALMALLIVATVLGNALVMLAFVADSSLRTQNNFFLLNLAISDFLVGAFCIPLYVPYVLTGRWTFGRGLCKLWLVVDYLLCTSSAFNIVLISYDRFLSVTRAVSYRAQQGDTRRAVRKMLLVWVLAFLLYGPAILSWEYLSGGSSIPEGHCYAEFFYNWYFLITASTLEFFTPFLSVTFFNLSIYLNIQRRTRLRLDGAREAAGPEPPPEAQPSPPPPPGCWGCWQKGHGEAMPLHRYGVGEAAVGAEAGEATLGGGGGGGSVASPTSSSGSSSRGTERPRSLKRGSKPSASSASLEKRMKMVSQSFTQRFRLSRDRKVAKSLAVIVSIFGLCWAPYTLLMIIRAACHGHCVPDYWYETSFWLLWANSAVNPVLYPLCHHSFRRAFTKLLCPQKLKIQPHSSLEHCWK
5-HT2B, sequence (P41595 whole entry, species assumed): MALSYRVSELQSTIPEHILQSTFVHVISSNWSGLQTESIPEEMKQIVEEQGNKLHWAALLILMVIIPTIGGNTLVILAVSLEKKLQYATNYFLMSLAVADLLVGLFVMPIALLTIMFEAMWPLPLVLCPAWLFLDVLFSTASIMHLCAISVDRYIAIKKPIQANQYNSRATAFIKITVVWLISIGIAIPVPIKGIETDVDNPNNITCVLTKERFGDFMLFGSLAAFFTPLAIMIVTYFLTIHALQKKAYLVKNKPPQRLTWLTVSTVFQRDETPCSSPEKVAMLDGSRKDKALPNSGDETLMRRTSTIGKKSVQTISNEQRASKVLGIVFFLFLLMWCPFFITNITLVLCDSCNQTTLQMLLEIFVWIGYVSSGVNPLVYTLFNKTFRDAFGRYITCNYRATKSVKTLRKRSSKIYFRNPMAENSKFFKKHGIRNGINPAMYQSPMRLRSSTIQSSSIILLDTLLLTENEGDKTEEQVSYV
5-ht1e, sequence (P28566 whole entry, species assumed): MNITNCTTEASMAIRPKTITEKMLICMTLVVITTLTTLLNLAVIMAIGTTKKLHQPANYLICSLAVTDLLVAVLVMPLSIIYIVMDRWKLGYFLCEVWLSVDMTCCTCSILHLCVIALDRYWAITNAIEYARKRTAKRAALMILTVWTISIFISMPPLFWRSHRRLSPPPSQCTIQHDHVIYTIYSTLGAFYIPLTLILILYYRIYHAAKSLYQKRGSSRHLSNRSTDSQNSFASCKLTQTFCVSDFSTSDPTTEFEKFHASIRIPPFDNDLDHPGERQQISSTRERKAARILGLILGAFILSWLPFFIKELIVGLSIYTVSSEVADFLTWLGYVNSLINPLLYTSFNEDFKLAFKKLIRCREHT
A3B2, sequence (P04757 26-499): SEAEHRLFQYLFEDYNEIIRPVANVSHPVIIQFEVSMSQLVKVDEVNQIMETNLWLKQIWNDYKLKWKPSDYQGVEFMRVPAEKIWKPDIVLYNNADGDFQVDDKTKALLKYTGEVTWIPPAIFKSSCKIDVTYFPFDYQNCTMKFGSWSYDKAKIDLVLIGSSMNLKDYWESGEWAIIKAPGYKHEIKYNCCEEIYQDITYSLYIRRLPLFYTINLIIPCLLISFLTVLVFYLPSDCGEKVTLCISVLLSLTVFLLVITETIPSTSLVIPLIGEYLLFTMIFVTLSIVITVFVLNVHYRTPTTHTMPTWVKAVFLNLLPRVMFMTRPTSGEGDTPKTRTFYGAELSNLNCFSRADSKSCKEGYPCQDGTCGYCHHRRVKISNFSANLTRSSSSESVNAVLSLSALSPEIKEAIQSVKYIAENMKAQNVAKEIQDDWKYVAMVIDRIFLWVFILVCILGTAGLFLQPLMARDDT
A3B2, sequence (P12390 25-500): as the sequence (P12390 25-500) above

Consider `COc1cccc(C2(N3CCCCC3)CCCCC2)c1` [3-MeO-PCP, 1-[1-(3-methoxyphenyl)cyclohexyl]piperidine], for which the inhibition constant (Ki) at H1, at A3B4, on 5-HT2B, at 5-HT6, at M1 and at M5 was above 10 µM each time. The Ki on CB2, on A3B2, at Beta3, at H3, on A2B2 and on A4B2 was above 10 µM each time. The Ki was above 10 µM at 5-ht1e; above 10 µM at Alpha1D; above 10 µM on 5-HT1B; above 10 µM at 5-HT1D; 2.1 µM at H2; above 10 µM at KOR.
With `CCNC1(c2cccc(OC)c2)CCCCC1=O` (racemic) [Methoxetamine, (RS)-2-(ethylamino)-2-(3-methoxyphenyl)cyclohexanone], the Ki at H1 was 2.96 µM; at A3B4 it was above 10 µM; at 5-HT2B, above 10 µM; at 5-HT6 it was above 10 µM; on M1, above 10 µM; on M5 it was above 10 µM. The Ki at CB2, on A3B2, on Beta3, on H3, on A2B2 and on A4B2 was above 10 µM in each case. Also, the Ki at 5-ht1e, on Alpha1D, on 5-HT1B, at 5-HT1D, at H2 and on KOR was above 10 µM in each case.
Take `COc1ccc(C2(N3CCCCC3)CCCCC2)cc1` [4-MeO-PCP, 1-[1-(4-methoxyphenyl)cyclohexyl]piperidine]: the Ki on H1, on A3B4, at 5-HT2B, at 5-HT6, on M1 and on M5 was above 10 µM in each case. Also, the Ki on CB2, on A3B2, at Beta3, at H3, at A2B2 and at A4B2 was above 10 µM in each case. Besides, the Ki at 5-ht1e, at Alpha1D, at 5-HT1B, on 5-HT1D, on H2 and on KOR was above 10 µM in each case.

The Ki is the dissociation constant of the complex between target and ligand, obtained from inhibition or displacement.
